Source: ChEMBL document CHEMBL4334464, “From Phenylthiazoles to Phenylpyrazoles: Broadening the Antibacterial Spectrum toward Carbapenem-Resistant Bacteria” (J Med Chem, 2019)
Activity calls are given as the source filed them.

What was measured:
[1] = tested on: Klebsiella pneumoniae; assay: Antibacterial activity against carbapenem-resistant Klebsiella pneumoniae ATCC BAA-2146 clinical isolates after 18 to 20 hrs in aerobic condition by CLSI-based broth microdilution assay; assay type: functional
[2] = tested on: Klebsiella pneumoniae; assay: Antibacterial activity against carbapenem-resistant Klebsiella pneumoniae ATCC BAA-1705 clinical isolates after 18 to 20 hrs in aerobic condition by CLSI-based broth microdilution assay; assay type: functional
[3] = tested on: Pseudomonas aeruginosa; assay: Ratio of MBC to MIC for Pseudomonas aeruginosa ATCC 15442 clinical isolates; assay type: functional
[4] = tested on: Salmonella enteritidis; assay: Ratio of MBC to MIC for Salmonella enteritidis ATCC 14028 clinical isolates; assay type: functional, Salmonella enterica subsp. enterica serovar Enteritidis
[5] = tested on: Escherichia coli; assay: Antibacterial activity against carbapenem-resistant Escherichia coli BAA-2469 clinical isolates after 18 to 20 hrs in aerobic condition by CLSI-based broth microdilution assay; assay type: functional
[6] = tested on: Salmonella enteritidis; assay: Antibacterial activity against Salmonella enteritidis ATCC 14028 clinical isolates after 18 to 20 hrs in aerobic condition by CLSI-based broth microdilution assay; assay type: functional, Salmonella enterica subsp. enterica serovar Enteritidis; conditions: Salmonella enterica
[7] = tested on: Staphylococcus aureus; assay: Antibacterial activity against linezolid-resistant/Methicillin-resistant Staphylococcus aureus NRS119 clinical isolates after 18 to 20 hrs in aerobic condition by CLSI protocol based broth microdilution assay; assay type: functional
[8] = tested on: Staphylococcus aureus; assay: Bactericidal activity against methicillin-resistant Staphylococcus aureus NRS123-USA400 clinical isolates at 5 times MIC incubated over 24 hrs followed by replating on tryptic soy agar plate and further incubated for 18 to 20 hrs by time kill assay; assay type: functional, organism-based
[9] = tested on: Clostridioides difficile; assay: Antibacterial activity against Clostridium difficile ATCC BAA 1870 incubated for 48 hrs in anaerobic condition by CLSI-based broth microdilution assay; assay type: functional; conditions: ATCC BAA 1870, 48 h
[10] = tested on: Acinetobacter baumannii; assay: Ratio of MBC to MIC for Acinetobacter baumannii NR 17785 clinical isolates; assay type: functional
[11] = tested on: Shigella flexneri; assay: Antibacterial activity against Shigella flexneri ATCC 9199 clinical isolates after 18 to 20 hrs in aerobic condition by CLSI-based broth microdilution assay; assay type: functional
[12] = tested on: Klebsiella pneumoniae; assay: Ratio of MBC to MIC for Klebsiella pneumoniae BAA-1706 after 18 to 20 hrs in aerobic condition by CLSI-based broth microdilution assay; assay type: functional
[13] = tested on: Escherichia coli; assay: Antibacterial activity against carbapenem-resistant Escherichia coli BAA-2452 clinical isolates after 18 to 20 hrs in aerobic condition by CLSI-based broth microdilution assay; assay type: functional
[14] = tested on: Pseudomonas aeruginosa; assay: Antibacterial activity against Pseudomonas aeruginosa ATCC 15442 clinical isolates after 18 to 20 hrs in aerobic condition by CLSI-based broth microdilution assay; assay type: functional
[15] = tested on: Pseudomonas aeruginosa; assay: microbe, parasite or virus in culture; conditions: ATCC 25619
Description: Antibacterial activity against Pseudomonas aeruginosa ATCC 25619 clinical isolates after 18 to 20 hrs in aerobic condition by CLSI-based broth microdilution assay

[16] = tested on: Enterococcus faecium; assay: Ratio of MBC to MIC for vancomycin-resistant Enterococcus faecium ATCC 700221 clinical isolates; assay type: functional
[17] = tested on: Clostridioides difficile; assay: Ratio of MBC to MIC for Clostridium difficile ATCC BAA 1870; assay type: functional
[18] = tested on: Salmonella typhimurium; assay: Ratio of MBC to MIC for Salmonella typhimurium ATCC 700720 clinical isolates; assay type: functional, Salmonella enterica subsp. enterica serovar Typhimurium
[19] = tested on: Acinetobacter baumannii; assay: Antibacterial activity against Acinetobacter baumannii NR 17785 clinical isolates after 18 to 20 hrs in aerobic condition by CLSI-based broth microdilution assay; assay type: functional
[20] = tested on: Salmonella enteritidis; assay: Ratio of MBC to MIC for Salmonella enteritidis ATCC 13076 clinical isolates; assay type: functional, Salmonella enterica subsp. enterica serovar Enteritidis
[21] = tested on: Pseudomonas aeruginosa; assay: Ratio of MBC to MIC for Pseudomonas aeruginosa ATCC 25619 clinical isolates; assay type: functional
[22] = tested on: Enterobacter cloacae subsp. cloacae; assay: Ratio of MBC to MIC for Enterobacter cloacae subsp. cloacae ATCC BAA-1143 clinical isolates; assay type: functional
[23] = tested on: Salmonella enteritidis; assay: Antibacterial activity against Salmonella enteritidis ATCC 13076 clinical isolates after 18 to 20 hrs in aerobic condition by CLSI-based broth microdilution assay; assay type: functional, Salmonella enterica subsp. enterica serovar Enteritidis; conditions: Salmonella enterica
[24] = tested on: Klebsiella pneumoniae; assay: Antibacterial activity against Klebsiella pneumoniae BAA-1706 clinical isolates after 18 to 20 hrs in aerobic condition by CLSI-based broth microdilution assay; assay type: functional
[25] = tested on: Pseudomonas aeruginosa; assay: Antibacterial activity against carbapenem-resistant Pseudomonas aeruginosa ATCC 1744 clinical isolates after 18 to 20 hrs in aerobic condition by CLSI-based broth microdilution assay; assay type: functional
[26] = tested on: Pseudomonas aeruginosa; assay: Ratio of MBC to MIC for Pseudomonas aeruginosa ATCC 9027 clinical isolates; assay type: functional
[27] = tested on: Staphylococcus aureus; assay: Ratio of MBC to MIC for Methicillin-sensitive Staphylococcus aureus ATCC 6538 clinical isolates; assay type: functional
[28] = tested on: Shigella flexneri; assay: Ratio of MBC to MIC for Shigella flexneri ATCC 9199 clinical isolates; assay type: functional
[29] = tested on: Acinetobacter baumannii; assay: Ratio of MBC to MIC for Acinetobacter baumannii ATCC BAA 1141 clinical isolates; assay type: functional
[30] = tested on: Staphylococcus aureus; assay: Antibacterial activity against Methicillin-sensitive Staphylococcus aureus NRS107 clinical isolates after 18 to 20 hrs in aerobic condition by CLSI protocol based broth microdilution assay; assay type: functional
[31] = tested on: Enterococcus faecium; assay: Antibacterial activity against vancomycin-resistant Enterococcus faecium ATCC 700221 clinical isolates after 18 to 20 hrs in aerobic condition by CLSI-based broth microdilution assay; assay type: functional
[32] = tested on: Acinetobacter baumannii; assay: Ratio of MBC to MIC for Acinetobacter baumannii ATCC 19606 clinical isolates; assay type: functional, ATCC 19606 = CIP 70.34 = JCM 6841
[33] = tested on: Streptococcus pneumoniae; assay: Antibacterial activity against methicillin-resistant Streptococcus pneumoniae ATCC 700677 clinical isolates after 18 to 20 hrs by CLSI-based broth microdilution assay; assay type: functional
[34] = tested on: Staphylococcus aureus; assay: Antibacterial activity against vancomycin-resistant Staphylococcus aureus isolate 12 after 18 to 20 hrs in aerobic condition by CLSI-based broth microdilution assay; assay type: functional
[35] = tested on: Escherichia coli; assay: Ratio of MBC to MIC for Escherichia coli BW25113 clinical isolates; assay type: functional
[36] = tested on: Acinetobacter baumannii; assay: microbe, parasite or virus in culture; conditions: ATCC BAA 1747
Description: Antibacterial activity against Acinetobacter baumannii ATCC BAA 1747 after 18 to 20 hrs in aerobic condition by CLSI-based broth microdilution assay

[37] = tested on: Acinetobacter baumannii; assay: Antibacterial activity against Acinetobacter baumannii ATCC BAA 1141 clinical isolates after 18 to 20 hrs in aerobic condition by CLSI-based broth microdilution assay; assay type: functional
[38] = tested on: Staphylococcus aureus; assay: Antibacterial activity against vancomycin-resistant Staphylococcus aureus isolate 10 after 18 to 20 hrs in aerobic condition by CLSI-based broth microdilution assay; assay type: functional
[39] = tested on: Staphylococcus aureus; assay: Ratio of MBC to MIC for Methicillin-sensitive Staphylococcus aureus NRS107 clinical isolates; assay type: functional
[40] = tested on: Escherichia coli; assay: microbe, parasite or virus in culture; conditions: ATCC 1411
Description: Antibacterial activity against Escherichia coli ATCC 1411 clinical isolates after 18 to 20 hrs in aerobic condition by CLSI-based broth microdilution assay

[41] = tested on: Staphylococcus aureus; assay: Antibacterial activity against Methicillin-resistant Staphylococcus aureus NRS123-USA400 clinical isolates after 18 to 20 hrs in aerobic condition by CLSI protocol based broth microdilution assay; assay type: functional
[42] = tested on: Acinetobacter baumannii; assay: Ratio of MBC to MIC for Acinetobacter baumannii ATCC BAA 1747 clinical isolates; assay type: functional
[43] = tested on: Acinetobacter baumannii; assay: Antibacterial activity against Acinetobacter baumannii NR 17786 clinical isolates after 18 to 20 hrs in aerobic condition by CLSI-based broth microdilution assay; assay type: functional
[44] = tested on: Escherichia coli; assay: Antimicrobial activity against Escherichia coli JW55031 harboring deltatolC mutant after 18 to 20 hrs in aerobic condition by CLSI protocol based broth microdilution assay; assay type: functional
[45] = tested on: Klebsiella pneumoniae; assay: Antibacterial activity against Klebsiella pneumoniae BAA-1144 clinical isolates after 18 to 20 hrs in aerobic condition by CLSI-based broth microdilution assay; assay type: functional

CCCCCC#Cc1ccc(-n2ncc(/C(C)=N/NC(=N)N)c2C)cc1
4 µg/mL: MIC [9] | MIC [36] | MIC [37] | MIC [44]
2 µg/mL: MIC [7] | MIC [30] | MIC [31] | MIC [33] | MIC [34] | MIC [38] | MIC [41]
> 1: Ratio [22]
active: Activity [8]
<=2: Ratio [27] | Ratio [39]
32 µg/mL: MIC [1] | MIC [14] | MIC [15] | MIC [25]
<3: Ratio [16] | Ratio [17]
16 µg/mL: MIC [2] | MIC [6] | MIC [13] | MIC [40] | MIC [45]
>=1: Ratio [3] | Ratio [4] | Ratio [10] | Ratio [12] | Ratio [18] | Ratio [20] | Ratio [21] | Ratio [26] | Ratio [28] | Ratio [29] | Ratio [32] | Ratio [35] | Ratio [42]
8 µg/mL: MIC [5] | MIC [11] | MIC [19] | MIC [23] | MIC [24] | MIC [43]
